Experimental data published in patent EP2085082A1, “Treatment of cognitive decline” (Nutromnia S.R.L., priority 2008, dated 2009).
Where “and” joins values, the source holds several entries; their conditions need not be identical. Equal values may be shown once.

How the values were obtained:
Assay type in all cases: in vivo
[1] = tested on: Goto-Kakizaki rats; assay: Morris water maze, repeated acquisition task, diabetes-related cognitive decline; conditions: 5% dodecanedioic acid pellets for 1 month
Method: (§1) In order to evaluate the impact of a diet enriched with dicarboxylic acids on diabetes-related cognitive decline, 10 Wistar rats and 20 Goto-Kakizaki rats of both sexes (half male and half female), aged 4 months were used.
(§2) Rats of the same sex were housed (2-3 per cage) in a colony room with a 12:12 light- dark cycle and ad libitum access to food and water. All behavioral testing occurred during the light phase of the light- dark cycle. Body weight was recorded twice a week.
(§3) Ten Goto-Kakizaki rats (treated group) were selected at random from the initial group of 20 animals and were fed with pellets enriched with 5% dodecanedioic acid. The remaining ten Goto-Kakizaki rats formed the control group and received standard Purina chow. A group of ten Wistar rats was also fed with standard Purina chow, as second control group.
(§4) The dietary supplementation was carried out for 1 month and in the last week of treatment the different groups underwent some tasks in the Morris water maze in order to test their cognitive abilities.
(§5) A large metal pool (180 cm in diameter) filled with opaque water and kept at a constant temperature 24 ± 1°C and a 10 cm platform were used in place discrimination and visual discrimination tasks. A straight plastic alley (10 × 70 cm) was placed in the large pool and used during the straight swim test to estimate swimming ability. A video-camera was used to record the different phases of the experiments.
(§6) The training started on the day after the place discrimination task and consisted of 1 day of training with two sessions of 9 trials each. During the first session, the set of extra maze cues, as well as the location of platform, was different from that on the previous place discrimination task. During the second session, the platform was moved to the new position, with the set of external cues remaining the same. Each session consisted of eight platform trials and one probe trial. The measures of platform and probe trials were the same as in the place discrimination task.
Data are reported as mean ± SD. Comparison between groups was made by repeated-measures ANOVA. […]

[2] = tested on: Wistar rats; assay: Morris water maze, place discrimination task, age-related cognitive decline; conditions: for Swimming time (choice accuracy, time to find the platform): pellets enriched with 5% dodecanedioic acid for 3 months
Method: (§7) In order to evaluate the impact of a diet enriched with dicarboxylic acids on age-related cognitive decline, 20 Wistar rats of both sexes (half male and half female), 4 months old and 23 months old were used.
(§8) Rats of the same sex were housed (2-3 per cage) in a colony room with a 12:12 light- dark cycle and ad libitum access to food and water. All behavioural testing occurred during the light phase of the light- dark cycle. Body weight was recorded twice a week.
(§9) The rats were divided in two groups of 10. The rats of a group (treated group) were fed with pellets enriched with 5% dodecanedioic acid, the rats of the other group being the control group. The dietary supplementation was carried out for 3 months and in the last week of treatment both groups underwent some tasks in the Morris water maze in order to test their cognitive abilities.
as §5
(§10) Each rat received 1 day of training with three sessions of five platform trials and one probe trial each and a random order of start positions. During the platform trials, the platform was submerged but accessible to the rat, whereas during the probe trials, the platform was collapsed at the bottom of the tank for variable intervals (from 10 to 40 sec) to test the subject's preference for the platform location. The collapsed platform was then returned to its raised position at the end of the probe trial to maintain the same response-reinforcement contingency as in the platform trials. The percentage of time spent in the correct quadrant, the choice accuracy [i.e. the time in seconds to find the platform], and the travelled distance or distance swum to find and climb on the platform [in centimeters] were measured. A a shorter time to find the platform indicate better performance. Higher scores for a percentage of time spent in the correct quadrant reflected better performance. Location of the platform and a set of spatial cues around the tank were changed between the testing periods.
(§11) Data are reported as mean ± SD. Comparison between groups was made by repeated-measures ANOVA. Body weight was used as a covariance to adjust the significance of between-group differences in speed of swimming. P<0.05 was considered as significant.

[3] = tested on: Goto-Kakizaki rats; assay: Morris water maze, place discrimination task, diabetes-related cognitive decline; conditions: average value (mean ± SD, 10 rats), 5% dodecanedioic acid pellets for 1 month, listed as dodecanoic acid
[4] = tested on: Wistar rats; assay: Morris water maze, repeated acquisition task, age-related cognitive decline; conditions: old Wistar rats, 5% dodecanedioic acid pellets for 3 months
Method: as §7, §8, §9, §5, §6, §11

[5] = tested on: Goto-Kakizaki rats; assay: Morris water maze, place discrimination task, diabetes-related cognitive decline; conditions: for Travelled distance / time of permanence in the correct quadrant / time to find the platform: Goto-Kakizaki rats
Method: as §1, §2, §3, §4, §5, §10, §11

[6] = average value (mean ± SD, 10 rats)
[7] = administered orally, rats, overall conclusion
[8] = individual data per rat, old Wistar rats, 5% dodecanedioic acid pellets for 3 months
[9] = average value (mean ± SD, 10 rats), 5% dodecanedioic acid pellets for 1 month
[10] = individual data per rat, 5% dodecanedioic acid pellets for 1 month

For `O=C(O)CCCCCCCCCCC(=O)O` [C12, dodecanedioic acid], the “REPEATED ACQUISITION TASK TRAVELLED DISTANCE” value [1, 6] was 374,10 cm, the “REPEATED ACQUISITION TASK TRAVELLED DISTANCE” value ([1]; average value (mean ± SD, 10 rats), listed as dodecanoic acid) was 374.1±78.23 cm and the “REPEATED ACQUISITION TASK TRAVELLED DISTANCE” value ([1]; individual data per rat) was 403 cm and 300 cm (3×) and 370 cm and 359 cm and 291 cm and 444 cm and 498 cm and 476 cm. For the same molecule, the “age-related decline in various cognitive functions” value [2, 7] was “ameliorates”, the “time in the correct quadrant” value ([2]; average value (10 rats), old Wistar rats, 5% dodecanedioic acid pellets for 3 months) was 41,70% and the Travelled distance ([2]; average value (mean ± SD, 10 rats), old Wistar rats, 5% dodecanedioic acid pellets for 3 months) was 409,50 cm. The Travelled distance ([2]; average value (mean ± SD, 10 rats), old Wistar rats, 5% dodecanedioic acid pellets for 3 months, listed as dodecanoic acid) was 409.5± 98.6 cm, the “Swimming time (choice accuracy, time to find the platform)” value ([2]; average value (mean ± SD, 10 rats), old Wistar rats) was 19,59 sec and the “Swimming time (choice accuracy, time to find the platform)” value ([2]; average value (mean ± SD, 10 rats), old Wistar rats, listed as dodecanedioic acid) was 19.6 ± 1.6 s. The Swimming time ([2]; individual data per rat, old Wistar rats fed pellets enriched with 5% dodecanedioic acid for 3 months) was 21,8 sec and 18 sec (3×) and 22 sec and 19 sec and 21 sec and 20 sec and 18,5 sec and 19,6 sec, the Travelled distance [2, 8] was 370 cm and 400 cm and 300 cm (2×) and 580 cm and 450 cm and 520 cm and 350 cm and 325 cm and 500 cm and the “time in the correct quadrant” value [2, 8] was 35% (2×) and 50% and 45% and 40% and 42% and 44% and 48% and 37% and 41%. The “time of permanence in the correct quadrant” value (“time of permanence” for short) ([2]; mean ± SD as given in text, old Wistar rats, 5% dodecanedioic acid pellets for 3 months) was 41.7±5.2 % sec, the Travelled distance [3] was 423.6±83.82 cm and the “Travelled distance in repeated trials” value [4, 6] was 327,00 cm. For the same molecule, the “Travelled distance in repeated trials” value ([4]; average value (mean ± SD, 10 rats), listed as dodecanedioic acid) was 327.0±80.4 cm, the “Travelled distance in repeated trials” value ([4]; individual data per rat) was 400 cm and 300 cm (3×) and 200 cm and 350 cm and 410 cm and 260 cm and 470 cm and 280 cm and the “diabetes-related decline in various cognitive functions” value [5, 7] was “ameliorates”. For the same molecule, the Travelled distance [5, 9] was 423,60 cm, the “time of permanence” value [5, 9] was 44,00 sec and the “time to find the platform” value [5, 9] was 23,24 sec. The “time to find the platform” value ([5]; average value (mean ± SD, 10 rats), 5% dodecanedioic acid pellets for 1 month, listed as dodecanedioic acid) was 23.24 ± 2.81 s, the Travelled distance [5, 10] was 306 cm and 418 cm and 511 cm (2×) and 368 cm and 354 cm and 477 cm and 541 cm and 326 cm and 424 cm and the “time of permanence” value [5, 10] was 41 sec (2×) and 49 sec and 50 sec and 46 sec and 39 sec and 47 sec and 45 sec and 44 sec and 38 sec. For the same molecule, the “time to find the platform” value ([5]; individual data per rat, pellets enriched with 5% dodecanedioic acid for 1 month) was 18,4 sec and 22,6 sec and 23,4 sec and 25,9 sec and 27 sec and 24 sec and 22,1 sec and 23,5 sec and 26,2 sec and 19,3 sec.
